Laboratory results: US11311543B2, “Compositions and methods for inhibiting PTPN22” (YALE UNIVERSITY, priority 2016, dated 2022)

How the values were obtained:
PTPN22 [1] = experiment: PTPN22 protein expression in GFP+ shRNA+ developing B cells from spleen of NSG mice; format: in vivo, human; conditions: GFP+ vs GFP- hCD19+ cells from spleen of NSG mice
Excerpt: FIG. 9A depicts a schematic of the experimental design. CD34+ HSCs carrying PTPN22 T allele(s) were transduced with lentiviruses allowing the expression of PTPN22 shRNA before injection in the liver of 3 day-old NSG mice. FIG. 9B depicts representative flow cytometry analysis of CD19+ cells isolated from the spleen of NSG mouse engrafted with PTPN22 C/T HSCs transduced with a GFP-tagged lentivirus expressing PTPN22 specific shRNA. CD19+ B cells were stained with anti-hCD19, anti-IgM and anti-hCD10 antibodies. The frequencies of GFP− and GFP+ shRNA+ new emigrant B cells are shown. […] The frequencies of polyreactive new emigrant B cells from sorted GFP+ fractions expressing PTPN22 shRNA were determined and compared to those of GFP− new emigrant B cells. […] The frequencies of HEp-2 reactive new emigrant B cells from sorted GFP+ fractions expressing PTPN22 shRNA were determined and compared to those of GFP− new emigrant B cells. […]
Total cell lysates were separated by SDS page, transferred to PVDF membranes, probed with mouse anti-PTPN22 (Invitrogen) and detected by chemiluminescence (Amersham ECL Prime Western Blotting detection Reagent) using a GBox documentation system (Syngene). For quantification, blots were stripped with stripping buffer (Pierce) and reprobed with a mouse anti-β-Actin antibody (Sigma-Aldrich).

PTPN22 [2] = target: T1, PTPN22 (Homo sapiens, UniProt Q9Y2R2); conditions: Vang et al., 2012; cited from earlier work
T1 construct: host or cells: T cells (not further specified)
T1 sequence (Q9Y2R2 1-807): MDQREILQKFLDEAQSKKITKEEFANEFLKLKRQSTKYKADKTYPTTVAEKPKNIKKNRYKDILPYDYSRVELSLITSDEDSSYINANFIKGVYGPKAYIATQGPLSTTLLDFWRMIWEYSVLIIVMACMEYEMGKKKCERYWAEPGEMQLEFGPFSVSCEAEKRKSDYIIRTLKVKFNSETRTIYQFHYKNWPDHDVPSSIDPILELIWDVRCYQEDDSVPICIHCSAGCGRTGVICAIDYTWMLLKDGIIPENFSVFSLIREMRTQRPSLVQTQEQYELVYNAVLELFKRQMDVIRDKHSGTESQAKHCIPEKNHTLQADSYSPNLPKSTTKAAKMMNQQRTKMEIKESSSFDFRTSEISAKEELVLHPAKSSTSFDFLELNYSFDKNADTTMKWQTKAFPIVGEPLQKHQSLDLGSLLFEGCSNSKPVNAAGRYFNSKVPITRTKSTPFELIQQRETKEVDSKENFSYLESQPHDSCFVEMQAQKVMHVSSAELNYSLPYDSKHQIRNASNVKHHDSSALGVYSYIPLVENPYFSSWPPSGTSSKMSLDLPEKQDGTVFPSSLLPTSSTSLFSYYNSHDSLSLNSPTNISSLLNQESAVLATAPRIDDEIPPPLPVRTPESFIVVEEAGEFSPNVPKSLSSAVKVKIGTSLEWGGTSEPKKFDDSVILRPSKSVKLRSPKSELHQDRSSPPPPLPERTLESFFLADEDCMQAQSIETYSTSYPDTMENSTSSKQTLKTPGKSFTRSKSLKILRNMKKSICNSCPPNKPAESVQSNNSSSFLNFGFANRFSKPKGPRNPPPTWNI

ERK = experiment: Phosphorylation kinetics of ERK in RAMOS cells after BCR triggering (immunoblot); format: cell-based, human; conditions: LTV-1 5 μg/mL
Experimental: FIG. 40A depicts the phosphorylation of SHIP1, Lyn and ERK1/2 in total cell lysates of Ramos B cells treated or not with the PTPN22 inhibitor LTV-1 (5 μg/mL) for the indicated times. The cells were subjected to immunoblot analysis of P-LYN P-SHIP1, P-ERK1/2, and β-ACTIN. FIG. 40B depicts flow cytometry analysis of calcium flux of Ramos B cells treated or not with the PTPN22 inhibitor LTV-1 (5 μg/mL) for the indicated times followed by stimulation with anti-IgM F(ab′)2 at the indicated concentrations. FIG. 40C depicts flow cytometry analysis of calcium flux of splenocyte cells treated or not with LTV-1 (0.75 mg) twice daily for 7 days and stimulated with anti-IgM F(ab′)2 (25 μg/mL). FIG. 40D depicts flow cytometry analysis of calcium flux of splenocyte expressing PTPN22 shRNA and stimulated with anti-IgM F(ab′)2 (25 μg/mL).
However, downstream ERK phosphorylation was not affected by PTPN22 inhibition (FIG. 40A). Since PTPN22 inhibition enhanced TCR signaling in Jurkat cell line, it was investigated if PTPN22 blockade may also increase BCR signaling and calcium flux induced by BCR triggering was measured in RAMOS cells in the presence or not of LTV-1. Calcium flux was increased by PTPN22 inhibition, especially at lower concentration of BCR triggering agent (FIG. 40B). […]

Row | Compound | decrease of PTPN22 expression in developing B cells (PTPN22 [1]) | PTPN22 enzymatic activity in T cells in vitro (PTPN22 [2]) | downstream ERK phosphorylation (ERK)
1 | shRNA #1: shRNA targeting human PTPN22, 5′-CTAGTGCTCTTGGTGTATATT-3′, delivered by GFP-tagged lentivirus | more than 90% |  | 
2 | Cc1ccccc1N1C(=O)/C(=C/c2ccc(OCc3cccc(C(=O)O)c3)cc2)C(=O)NC1=S [LTV-1] |  | can be inhibited | not affected
